Results reported in patent US12202835B2, “Substituted aromatic ring-linked dioxinoquinazolines and dioxinoquinolines as kinase inhibitors” (BEIJING SCITECH-MQ PHARMACEUTICALS LIMITED, priority 2018, dated 2025).
pIC50: −log10 of the molar value.

Columns and labels:
Format in all cases: biochemical
MER kinase = MER kinase (Homo sapiens (Human), UniProt Q12866); assay: Assay of small molecular compounds for inhibiting the activity of MER kinase (LANCE TR-FRET)
Experimental: The assay of small molecular compounds for inhibiting the activity of MER kinase is based on the LANCE TR-FRET technology of Perkin Elmer Inc., and the assay method is as follows: • 1. Dilution of compounds: a total of 11 concentrations were obtained using a 3-fold gradient dilution from the highest concentration of 2500 nM (the maximum final concentration of the drug used in this assay was 2500 nM, and the minimum final concentration was 0.042 nM). • 2. 2.5 μL of the gradient-diluted compounds were taken with a transfer pipette to a 384-well plate. • 3. Addition of enzyme: 5 μL of 2×MER kinase solution (with a concentration of 1 nM) was taken with a transfer pipette to the corresponding reaction well of the 384-well plate, mixed well and pre-reacted at room temperature for 5 minutes. • 4. 2.5 μL 4× ULight-labeled Ploy GT (with a concentration of 200 nM)/ATP (with a concentration of 20 μM) mixture was taken with a transfer pipette to the corresponding reaction well of the 384-well plate. • 5. Negative control: 2.5 μL/well 4× substrate/ATP mixture and 7.5 μL 1× Kinase Assay Buffer were added to the wells of the 384-well plate.
(§1) Positive control: 2.5 μL/well 4× substrate/ATP mixture, 2.5 μL/well 1× Kinase Assay Buffer containing 4% DMSO, and 5 μL/well 2×MER kinase solution were added to the 384-well plate. The final concentration of DMSO in the reaction system was 1%. • 6. The mixture was mixed well and then centrifuged and reacted at room temperature in dark for 60 min. • 7. Termination of the enzymatic reaction: 5 μL of 4× stop solution was taken with a transfer pipette to the wells of the 384-well plate, mixed and then centrifuged, and reacted at room temperature for 5 min. • 8. Development of the reaction: 5 μL of 4× detection solution was taken with a transfer pipette to the wells of the 384-well plate for color development, and the mixture was mixed and then centrifuged and reacted at room temperature for 60 min. • 9. The 384-well plate was placed into the Envision plate reader and the signal was detected using the appropriate program. • 10. Analysis and processing of the raw data:
The drug concentrations and the corresponding inhibition rates were input into GraphPad Prism5 for calculation, and the inhibition rate of the compounds were calculated as follows: inhibition rate (%)=(reading of positive well−reading of experimental well)/(reading of positive control well−reading of negative control well)×100%. Processing with GraphPad Prism5 software yielded the corresponding IC50 values (the concentration of the compound at which 50% of the highest inhibition of the enzyme is achieved).

c-MET kinase = c-MET kinase (Homo sapiens (Human), UniProt P08581); assay: Assay of small molecular compounds for inhibiting the activity of c-MET kinase (LANCE TR-FRET); details: read-out: CMET IC50
Chain of c-MET kinase (P08581 25-1390): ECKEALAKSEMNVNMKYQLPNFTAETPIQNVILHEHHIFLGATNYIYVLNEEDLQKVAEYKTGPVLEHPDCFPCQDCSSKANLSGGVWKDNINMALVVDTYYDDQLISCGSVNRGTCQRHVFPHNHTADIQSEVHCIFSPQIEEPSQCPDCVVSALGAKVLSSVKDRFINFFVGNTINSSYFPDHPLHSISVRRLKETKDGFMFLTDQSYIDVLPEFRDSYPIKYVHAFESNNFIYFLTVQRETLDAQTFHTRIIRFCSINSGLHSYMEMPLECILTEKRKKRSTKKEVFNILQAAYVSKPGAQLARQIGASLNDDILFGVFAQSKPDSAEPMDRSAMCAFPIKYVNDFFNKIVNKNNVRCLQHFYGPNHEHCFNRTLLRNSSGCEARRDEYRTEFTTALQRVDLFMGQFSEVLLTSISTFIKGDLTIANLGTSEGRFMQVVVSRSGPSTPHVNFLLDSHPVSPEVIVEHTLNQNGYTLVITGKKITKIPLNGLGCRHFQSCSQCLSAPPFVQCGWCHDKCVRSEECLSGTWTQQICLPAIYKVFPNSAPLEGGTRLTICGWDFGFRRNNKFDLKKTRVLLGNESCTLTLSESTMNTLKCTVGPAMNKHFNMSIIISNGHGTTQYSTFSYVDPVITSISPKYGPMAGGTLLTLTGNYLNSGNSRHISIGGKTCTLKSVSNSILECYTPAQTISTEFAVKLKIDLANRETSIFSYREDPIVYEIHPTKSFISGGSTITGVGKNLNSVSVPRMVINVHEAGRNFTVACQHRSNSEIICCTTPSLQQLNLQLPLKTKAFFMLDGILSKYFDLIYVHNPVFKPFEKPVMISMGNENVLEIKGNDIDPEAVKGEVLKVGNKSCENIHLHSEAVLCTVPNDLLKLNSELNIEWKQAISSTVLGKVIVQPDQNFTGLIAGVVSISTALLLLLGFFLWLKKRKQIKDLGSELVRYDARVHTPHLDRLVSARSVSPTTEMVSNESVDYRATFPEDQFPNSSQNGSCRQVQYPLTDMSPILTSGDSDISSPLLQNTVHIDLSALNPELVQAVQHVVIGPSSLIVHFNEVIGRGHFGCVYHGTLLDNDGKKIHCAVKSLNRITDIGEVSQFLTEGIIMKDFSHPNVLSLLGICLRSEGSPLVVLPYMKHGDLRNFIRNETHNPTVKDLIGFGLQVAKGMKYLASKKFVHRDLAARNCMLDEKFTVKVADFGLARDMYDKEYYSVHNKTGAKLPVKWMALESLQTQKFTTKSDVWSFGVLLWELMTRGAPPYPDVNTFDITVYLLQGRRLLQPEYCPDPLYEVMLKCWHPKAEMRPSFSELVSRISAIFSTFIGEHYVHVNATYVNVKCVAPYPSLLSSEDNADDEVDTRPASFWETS
Experimental: The assay is based on the LANCE TR-FRET technology of Perkin Elmer Inc., and the assay method is as follows: • 1. Dilution of compounds: a total of 11 concentrations were obtained using a 3-fold gradient dilution from the highest concentration of 2500 nM (the maximum final concentration of the drug used in this assay was 2500 nM, and the minimum final concentration was 0.042 nM). • 2. 2.5 μL of the gradient-diluted compounds were taken with a transfer pipette to a 384-well plate. • 3. Addition of enzyme: 5 μL of 2×c-MET kinase solution (with a concentration of 2 nM) was taken with a transfer pipette to the corresponding reaction well of the 384-well plate, mixed well and pre-reacted at room temperature for 5 minutes. • 4. 2.5 μL 4× Ultra ULight™-JAK-1 (Tyr1023) Peptide (with a concentration of 400 nM)/ATP (with a concentration of 40 μM) mixture was taken with a transfer pipette to the corresponding reaction well of the 384-well plate. • 5. Negative control: 2.5 μL/well 4× substrate/ATP mixture and 7.5 μL 1× Kinase Assay Buffer were added to the wells of the 384-well plate. • 6. Positive control: 2.5 μL/well 4× substrate/ATP mixture, 2.5 μL/well 1× Kinase Assay Buffer containing 16% DMSO, and 5 μL/well 2× c-MET kinase solution were added to the 384-well plate. The final concentration of DMSO in the reaction system was 4%. • 7. The mixture was mixed well and then centrifuged and reacted at room temperature in dark for 60 min. • 8. Termination of the enzymatic reaction: 5 μL of 4× stop solution was taken with a transfer pipette to the wells of the 384-well plate, mixed and then centrifuged, and reacted at room temperature for 5 min. • 9. Development of the reaction: 5 μL of 4× detection solution was taken with a transfer pipette to the wells of the 384-well plate for color development, and the mixture was mixed and then centrifuged and reacted at room temperature for 60 min. • 10. The 384-well plate was placed into the Envision plate reader and the signal was detected using the appropriate program. • 11. Analysis and processing of the raw data: • 12. The drug concentrations and the corresponding inhibition rates were input into GraphPad Prism5 for calculation, and the inhibition rate of the compounds were calculated as follows: inhibition rate (%)=(reading of positive well−reading of experimental well)/(reading of positive control well−reading of negative control well)×100%. Processing with GraphPad Prism5 software yielded the corresponding IC50 values (the concentration of the compound at which 50% of the highest inhibition of the enzyme is achieved).

TRKA kinase = TRKA kinase (Homo sapiens (Human), UniProt P04629); assay: Assay of small molecular compounds for inhibiting the activity of TRKA kinase (LANCE TR-FRET)
Chain of TRKA kinase (P04629 33-796): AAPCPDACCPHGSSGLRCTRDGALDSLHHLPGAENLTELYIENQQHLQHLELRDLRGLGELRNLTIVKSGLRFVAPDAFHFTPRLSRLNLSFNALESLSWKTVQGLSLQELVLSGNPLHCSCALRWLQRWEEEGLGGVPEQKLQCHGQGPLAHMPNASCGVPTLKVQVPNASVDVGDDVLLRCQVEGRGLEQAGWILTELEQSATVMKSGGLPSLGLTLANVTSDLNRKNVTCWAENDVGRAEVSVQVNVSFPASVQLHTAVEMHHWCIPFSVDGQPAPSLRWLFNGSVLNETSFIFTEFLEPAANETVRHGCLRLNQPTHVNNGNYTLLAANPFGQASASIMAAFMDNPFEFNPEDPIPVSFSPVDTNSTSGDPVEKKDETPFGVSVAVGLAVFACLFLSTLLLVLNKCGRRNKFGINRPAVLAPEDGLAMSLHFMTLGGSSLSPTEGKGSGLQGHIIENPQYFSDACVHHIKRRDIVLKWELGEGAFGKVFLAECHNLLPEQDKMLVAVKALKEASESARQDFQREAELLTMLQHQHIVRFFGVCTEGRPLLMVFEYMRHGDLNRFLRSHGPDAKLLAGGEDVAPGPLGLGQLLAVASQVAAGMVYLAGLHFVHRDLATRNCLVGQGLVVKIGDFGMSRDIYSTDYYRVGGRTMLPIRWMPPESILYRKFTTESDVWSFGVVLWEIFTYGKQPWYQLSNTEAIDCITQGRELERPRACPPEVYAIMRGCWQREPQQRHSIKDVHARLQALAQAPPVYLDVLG
Experimental: The assay of small molecular compounds for inhibiting the activity of TRKA kinase is based on the LANCE TR-FRET technology of Perkin Elmer Inc., and the assay method is as follows: • 1. […] 2.5 μL of the gradient-diluted compounds were taken with a transfer pipette to a 384-well plate. • 3. Addition of enzyme: 5 μL of 2×TRKA kinase solution (with a concentration of 2 nM) was taken with a transfer pipette to the corresponding reaction well of the 384-well plate, mixed well and pre-reacted at room temperature for 5 minutes. • 4. 2.5 μL 4× Ultra ULight-labeled TK Peptide (with a concentration of 400 nM)/ATP (with a concentration of 40 μM) mixture was taken with a transfer pipette to the corresponding reaction well of the 384-well plate. • 5. Negative control: 2.5 μL/well 4× substrate/ATP mixture and 7.5 μL 1× Kinase Assay Buffer were added to the wells of the 384-well plate.
as §1, with “2×TRKA” for “2×MER”, “program.” for “program. • 10. Analysis and processing of the raw data:”

Chain of MER kinase (Q12866 21-999): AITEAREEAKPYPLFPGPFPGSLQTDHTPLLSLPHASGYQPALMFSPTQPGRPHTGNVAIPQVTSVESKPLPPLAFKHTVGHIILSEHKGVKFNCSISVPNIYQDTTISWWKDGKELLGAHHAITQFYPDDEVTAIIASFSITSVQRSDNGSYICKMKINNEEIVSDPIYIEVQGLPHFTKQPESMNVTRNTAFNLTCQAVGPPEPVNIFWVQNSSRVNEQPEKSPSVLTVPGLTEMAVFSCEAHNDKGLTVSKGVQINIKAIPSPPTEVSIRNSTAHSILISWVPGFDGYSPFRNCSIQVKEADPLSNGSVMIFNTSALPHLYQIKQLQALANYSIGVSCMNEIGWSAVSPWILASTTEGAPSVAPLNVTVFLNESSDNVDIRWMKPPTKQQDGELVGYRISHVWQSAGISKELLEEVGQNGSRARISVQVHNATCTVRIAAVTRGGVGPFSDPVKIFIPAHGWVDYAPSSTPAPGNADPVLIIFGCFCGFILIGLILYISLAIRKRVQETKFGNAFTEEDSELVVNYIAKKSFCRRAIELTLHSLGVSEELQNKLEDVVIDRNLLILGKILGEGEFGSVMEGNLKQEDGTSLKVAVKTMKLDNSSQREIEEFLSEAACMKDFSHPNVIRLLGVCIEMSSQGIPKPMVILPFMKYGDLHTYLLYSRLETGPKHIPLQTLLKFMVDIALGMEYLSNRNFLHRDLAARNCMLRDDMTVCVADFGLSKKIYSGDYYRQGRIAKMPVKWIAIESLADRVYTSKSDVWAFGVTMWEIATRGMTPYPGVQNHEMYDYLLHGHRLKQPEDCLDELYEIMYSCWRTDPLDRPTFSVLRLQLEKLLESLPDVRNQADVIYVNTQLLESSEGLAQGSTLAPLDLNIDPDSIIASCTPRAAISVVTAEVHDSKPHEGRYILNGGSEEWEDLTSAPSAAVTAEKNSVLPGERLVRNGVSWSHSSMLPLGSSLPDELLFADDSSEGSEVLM

| pIC50 (MER kinase) | pIC50 (c-MET kinase) | pIC50 (TRKA kinase) | Structure (SMILES) |
| --- | --- | --- | --- |
| 5.30 to 6.30 | 6.30 to 7.30 |  | COc1cc2ncnc(Oc3ccc(NC(=O)c4ccn(-c5ccc(F)cc5C)n4)cc3F)c2c2c1OCCO2 [Example 7, 1-(4-fluoro-2-methylphenyl)-N-(3-fluoro-4-((5-methoxy-2,3-dihydro-[1,4]dioxino[2,3-f]quinazolin-10-yl)oxy)phenyl)-1H-pyrazole-3-carboxamide] |
| 5.30 to 6.30 | 6.30 to 7.30 |  | COc1cn(-c2ccc(F)cc2C)nc1C(=O)Nc1ccc(Oc2ncnc3cc(OC)c4c(c23)OCCO4)c(F)c1 [Example 8, 1-(4-fluoro-2-methylphenyl)-N-(3-fluoro-4-((5-methoxy-2,3-dihydro-[1,4]dioxino[2,3-f]quinazolin-10-yl)oxy)phenyl)-4-methoxy-1H-pyrazole-3-carboxamide] |
| 5.30 to 6.30 | 6.30 to 7.30 |  | CCOc1cn(-c2ccc(F)cc2C)nc1C(=O)Nc1ccc(Oc2ncnc3cc(OC)c4c(c23)OCCO4)c(F)c1 [Example 9, 1-(4-fluoro-2-methylphenyl)-N-(3-fluoro-4-((5-methoxy-2,3-dihydro-[1,4]dioxino[2,3-f]quinazolin-10-yl)oxy)phenyl)-4-ethoxy-1H-pyrazole-3-carboxamide] |
| 6.30 to 7.30 | ≥ 7.30 |  | Cc1cc(F)ccc1-n1ccc(C(=O)Nc2ccc(Oc3ncnc4cc(OCCCN5CCOCC5)c5c(c34)OCCO5)c(F)c2)n1 [Example 10, 1-(4-fluoro-2-methylphenyl)-N-(3-fluoro-4-((5-(3-morpholinopropoxy)-2,3-dihydro-[1,4]dioxino[2,3-f]quinazolin-10-yl)oxy)phenyl)-1H-pyrazole-3-carboxamide] |
| ≥ 7.30 | ≥ 7.30 | 6.30 to 7.30 | COc1cc2nccc(Oc3ccc(NC(=O)c4cn(C(C)C)c(=O)n(-c5ccc(F)cc5)c4=O)cc3F)c2c2c1OCCO2 [Example 14, N-(3-fluoro-4-((5-methoxy-2,3-dihydro-[1,4]dioxino[2,3-f]quinolin-10-yl)oxy)phenyl)-3-(4-fluorophenyl)-1-isopropyl-2,4-dioxo-1,2,3,4-tetrahydropyrimidine-5-carboxamide] |
| 5.30 to 6.30 | 6.30 to 7.30 | 6.30 to 7.30 | COc1cc2nccc(Oc3ccc(NC(=O)c4ccn(-c5ccc(F)cc5C)n4)cc3F)c2c2c1OCCO2 [Example 23, 1-(4-fluoro-2-methylphenyl)-N-(3-fluoro-4-((5-methoxy-2,3-dihydro-[1,4]dioxino[2,3-f]quinolin-10-yl)oxy)phenyl)-1H-pyrazole-3-carboxamide] |
| 6.30 to 7.30 | 6.30 to 7.30 | 6.30 to 7.30 | CCOc1cn(-c2ccc(F)cc2C)nc1C(=O)Nc1ccc(Oc2ccnc3cc(OC)c4c(c23)OCCO4)c(F)c1 [Example 25, 1-(4-fluoro-2-methylphenyl)-N-(3-fluoro-4-((5-methoxy-2,3-dihydro-[1,4]dioxino[2,3-f]quinolin-10-yl)oxy)phenyl)-4-ethoxy-1H-pyrazole-3-carboxamide] |
| 6.30 to 7.30 | ≥ 7.30 | 6.30 to 7.30 | COc1cc2nccc(Oc3ccc(NC(=O)c4cn(CC(C)C)c(=O)n(-c5ccc(F)cc5)c4=O)cc3F)c2c2c1OCCO2 [Example 47, N-(3-fluoro-4-((5-methoxy-2,3-dihydro-[1,4]dioxino[2,3-f]quinolin-10-yl)oxy)phenyl)-3-(4-fluorophenyl)-1-isobutyl-2,4-dioxo-1,2,3,4-tetrahydropyrimidine-5-carboxamide] |
| 6.30 to 7.30 |  | 5.30 to 6.30 | COc1cc2nccc(Oc3ccc(NC(=O)c4cn(C(C)C)c(=O)n(C5CCCCC5)c4=O)cc3F)c2c2c1OCCO2 [Example 157, N-(3-fluoro-4-((5-methoxy-2,3-dihydro-[1,4]dioxino[2,3-f]quinolin-10-yl)oxy)phenyl)-3-cyclohexyl-1-isopropyl-2,4-dioxo-1,2,3,4-tetrahydropyrimidine-5-carboxamide] |
|  | ≥ 7.30 | 6.30 to 7.30 | CCOc1ccn(-c2ccc(F)cc2)c(=O)c1C(=O)Nc1ccc(Oc2ccnc3ccc4c(c23)OCCO4)cc1 [Example 164, N-(4-((2,3-dihydro-[1,4]dioxino[2,3-f]quinolin-10-yl)oxy)phenyl)-4-ethoxy-1-(4-fluorophenyl)-2-oxo-1,2-dihydropyridine-3-carboxamide] |
|  | ≥ 7.30 | 6.30 to 7.30 | O=C(Nc1ccc(Oc2ccnc3ccc4c(c23)OCCO4)cc1)c1cccn(-c2ccc(F)cc2)c1=O [Example 165, N-(4-((2,3-dihydro-[1,4]dioxino[2,3-f]quinolin-10-yl)oxy)phenyl)-1-(4-fluorophenyl)-2-oxo-1,2-dihydropyridine-3-carboxamide] |
|  | 6.30 to 7.30 | 6.30 to 7.30 | COc1ccn(-c2ccc(F)cc2)c(=O)c1C(=O)Nc1ccc(Oc2ccnc3ccc4c(c23)OCCO4)cc1 [Example 166, N-(4-((2,3-dihydro-[1,4]dioxino[2,3-f]quinolin-10-yl)oxy)phenyl)-4-methoxy-1-(4-fluorophenyl)-2-oxo-1,2-dihydropyridine-3-carboxamide] |
|  | ≥ 7.30 | 6.30 to 7.30 | COc1ccn(-c2ccc(F)cc2)c(=O)c1C(=O)Nc1ccc(Oc2ccnc3ccc4c(c23)OCCO4)c(F)c1 [Example 167, N-(4-((2,3-dihydro-[1,4]dioxino[2,3-f]quinolin-10-yl)oxy)-3-fluorophenyl)-1-(4-fluorophenyl)-4-methoxy-2-oxo-1,2-dihydropyridine-3-carboxamide] |
